Data set [1] addresses T1, Cytochrome P450 11B1, mitochondrial (Homo sapiens, UniProt P15538).
T1 sequence (P15538 whole entry): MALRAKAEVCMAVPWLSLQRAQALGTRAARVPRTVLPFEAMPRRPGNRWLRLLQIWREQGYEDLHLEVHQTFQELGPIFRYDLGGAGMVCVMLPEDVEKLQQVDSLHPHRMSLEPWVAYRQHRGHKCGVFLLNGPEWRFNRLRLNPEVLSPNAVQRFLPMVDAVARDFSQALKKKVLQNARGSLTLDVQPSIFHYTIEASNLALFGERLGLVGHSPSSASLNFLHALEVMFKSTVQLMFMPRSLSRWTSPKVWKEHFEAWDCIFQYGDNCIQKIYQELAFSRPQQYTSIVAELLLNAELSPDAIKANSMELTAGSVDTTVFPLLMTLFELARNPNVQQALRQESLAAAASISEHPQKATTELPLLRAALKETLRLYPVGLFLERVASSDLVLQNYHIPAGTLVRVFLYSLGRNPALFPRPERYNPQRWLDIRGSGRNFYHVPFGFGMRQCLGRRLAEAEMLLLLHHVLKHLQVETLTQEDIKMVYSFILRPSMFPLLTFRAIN
The data set is described as follows: (§1) Inhibition Assay: The expression plasmids contains the ORF for either human/cyno CYP11B1 or CYP11B2 under the control of a suitable promoter (CMV-promoter) and a suitable resistance marker (neomycin). Using standard techniques the expression plasmid is transfected into G-402 cells and these cells are then selected for expressing the given resistance markers. Individual cell-clones are then selected and assessed for displaying the desired enzymatic activity using 11-Deoxycorticosterone (Cyp11B2) or 11-Deoxycortisol (Cyp11B1) as a substrate.G-402 cells expressing CYP11 constructs were established as described above and maintained in McCoy's 5a Medium Modified, ATCC Catalog No. 30-2007 containing 10% FCS and 400 μg/ml G418 (Geneticin) at 37° C. under an atmosphere of 5% CO2/95% air. Cellular enzyme assays were performed in DMEM/F12 medium containing 2.5% charcoal treated FCS and appropriate concentration of substrate (0.3-10 uM 11-Deoxycorticosterone, 11-Deoxycortisol or Corticosterone). For assaying enzymatic activity, cells were plated onto 96 well plates and incubated for 16 h. An aliquot of the supernatant is then transferred and analyzed for the concentration of the expected product (Aldosterone for CYP11B2; Cortisol for CYP11B1). The concentrations of these steroids can be determined using HTRF assays from CisBio analyzing either Aldosterone or Cortisol.

The target of data set [2] is T2, Cytochrome P450 11B2, mitochondrial (Homo sapiens, UniProt P19099).
T2 sequence (P19099 whole entry): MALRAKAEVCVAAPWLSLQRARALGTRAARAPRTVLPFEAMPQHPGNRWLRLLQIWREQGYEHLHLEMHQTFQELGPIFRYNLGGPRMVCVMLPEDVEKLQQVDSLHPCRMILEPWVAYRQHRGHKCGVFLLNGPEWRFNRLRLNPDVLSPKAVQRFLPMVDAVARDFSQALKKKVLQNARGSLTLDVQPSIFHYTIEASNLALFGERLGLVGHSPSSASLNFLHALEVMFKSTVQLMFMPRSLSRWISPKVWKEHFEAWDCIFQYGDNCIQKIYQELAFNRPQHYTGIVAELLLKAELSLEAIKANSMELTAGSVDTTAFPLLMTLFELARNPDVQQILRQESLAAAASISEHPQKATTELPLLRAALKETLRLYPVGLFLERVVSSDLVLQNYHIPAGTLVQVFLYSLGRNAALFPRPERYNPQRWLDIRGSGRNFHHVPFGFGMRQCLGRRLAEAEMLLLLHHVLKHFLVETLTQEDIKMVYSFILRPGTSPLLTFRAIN
The data set is described as §1.

SMILES strings stand for the structures.

On to `CN1C(=O)CCc2c1ccc(-c1n[nH]cc1CC1CCN(C(=O)c3ccnn3C)CC1)c2F`, for which the EC50 (as a rule, the concentration giving half of the maximal effect) in data set [1] is listed as 0.076 nM. This lies in the picomolar range.

With `CN1C(=O)CCc2c1ccc(-c1n[nH]cc1CC1CCN(S(=O)(=O)c3ccnn3C)CC1)c2F`, the EC50 turned out to be 0.704 nM in data set [1] and 0.014 nM in data set [2].

Take `CC(=O)N1CCC(C(C)c2c[nH]nc2-c2ccc3c(c2F)CCC(=O)N3C)CC1` (racemic): in data set [1], the EC50 was determined as 0.049 nM.

`CC(=O)N1CCC(C(C)c2c[nH]nc2-c2cc3c(cc2F)N(C)C(=O)CC3)CC1` (racemic): it took 0.067 nM to reach a half-maximal effect in data set [1] (EC50).

On to `CC(=O)N1CCC([C@@H](C)c2c[nH]nc2-c2ccc3c(c2F)CCC(=O)N3C)CC1` (single isomer, unassigned), for which the values for the EC50 in data set [1] and in data set [2] were 0.074 nM and 0.012 nM, respectively.

In data set [2], `CC(=O)N1CCC([C@H](C)c2c[nH]nc2-c2ccc3c(c2F)CCC(=O)N3C)CC1` (single isomer, unassigned) yielded an EC50 of 0.064 nM.

The values are drawn from ChEMBL document CHEMBL5726546, “Dihydroquinoline pyrazolyl compounds” (2017).
